From PubChem BioAssay (NCI)
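Briefly, cells in 96-well plates were exposed to five compound concentrations for 48 h, and endpoints were estimated by linear interpolation. Definition used: TGI = concentration required for complete inhibition of growth.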 Where a SMILES comes first, the peptide text is derived from it. The star is where a group is joined. Pentanoyl = CCCCC(=O)*; Boc = CC(C)(C)OC(=O)*

What was measured:
Assay in all cases: NCI tumour cell line growth inhibition, 48 h
[1] = system: OVCAR-8 ovarian
[2] = system: NCI/ADR-RES ovarian
[3] = system: A498 renal
[4] = system: HS 578T breast
[5] = system: SK-MEL-2 melanoma
[6] = system: HCT-15 colon
[7] = system: ACHN renal
[8] = system: RXF 393 renal
[9] = system: M14 melanoma
[10] = system: MDA-MB-231 breast
[11] = system: OVCAR-3 ovarian
[12] = system: UACC-62 melanoma
[13] = system: SNB-75 CNS
[14] = system: K-562 leukemia
[15] = system: UO-31 renal
[16] = system: SN12C renal
[17] = system: HL-60(TB) leukemia
[18] = system: MALME-3M melanoma
[19] = system: NCI-H226 lung
[20] = system: NCI-H23 lung

| Compound | TGI [1] | TGI [2] | TGI [3] | TGI [4] | TGI [5] | TGI [6] | TGI [7] | TGI [8] | TGI [9] | TGI [10] | TGI [11] | TGI [12] | TGI [13] | TGI [14] | TGI [15] | TGI [16] | TGI [17] | TGI [18] | TGI [19] | TGI [20] |
| --- | --- | --- | --- | --- | --- | --- | --- | --- | --- | --- | --- | --- | --- | --- | --- | --- | --- | --- | --- | --- |
| Nc1ccc(N=Nc2ccc(-c3ccc(O)cc3)cc2)c2ccc(S(=O)(=O)O)cc12 | > 100 µM | > 100 µM | > 100 µM | > 100 µM | > 100 µM | > 100 µM | > 100 µM | > 100 µM | > 100 µM | > 100 µM | > 100 µM | > 100 µM | > 100 µM | > 100 µM | > 100 µM | > 100 µM | > 100 µM | > 100 µM | > 100 µM | > 100 µM |
| N=c1nc2n(cc1F)[C@@H]1O[C@H](CO)[C@@H](O)[C@@H]1O2 | > 100 µM | > 100 µM | > 100 µM | > 100 µM | > 100 µM | > 100 µM | > 34.4 µM | > 56.2 µM | 7.81 µM | > 100 µM | > 100 µM | > 100 µM | > 95 µM | > 100 µM | > 42.6 µM | > 100 µM | > 40.9 µM | > 34 µM | > 100 µM | > 55.8 µM |
| CCCCC(=O)Oc1ccc(CC(NC(=O)OC(C)(C)C)C(=O)NC(C)C(=O)NC(Cc2ccccc2)C(=O)NCC(N)=O)cc1 (stereo not given) (Boc-Y(Pentanoyl)AFG-NH2; configuration not given here) | 62.5 µM | > 100 µM | > 100 µM | > 100 µM | 41.1 µM | > 100 µM | > 100 µM | > 100 µM | > 100 µM | 41.6 µM | 39.2 µM | 45.5 µM | > 100 µM | > 100 µM | > 100 µM | > 100 µM | 61 µM | > 100 µM | > 100 µM | > 100 µM |
| C=CCC(CC=O)(C(=O)OCC)C(=O)OCC | > 100 µM | > 100 µM | > 100 µM | > 100 µM | > 100 µM | > 100 µM | > 100 µM | > 100 µM | > 100 µM | > 100 µM | > 100 µM | > 100 µM | > 100 µM | > 100 µM | > 100 µM | > 100 µM | > 100 µM | > 100 µM | > 100 µM | > 100 µM |
| C=CCn1c(C23CC4CC(CC(C4)C2)C3)n[nH]c1=S | > 100 µM | > 100 µM | > 100 µM | > 100 µM | > 100 µM | > 100 µM | > 100 µM | > 100 µM | > 100 µM | > 100 µM | > 100 µM | > 100 µM | > 100 µM | > 100 µM | > 100 µM | > 100 µM | 53.9 µM | > 100 µM | > 100 µM | > 100 µM |
| O=C1c2ccccc2C(=O)c2c1ccc1nc3c(nc21)-c1c2ccccc2cc2cccc-3c12 | > 100 µM | > 100 µM | > 82.5 µM | > 52.4 µM | > 100 µM | > 100 µM | > 57.6 µM | > 100 µM | > 100 µM | > 100 µM | > 100 µM | > 86.2 µM | > 31.6 µM | > 100 µM | > 100 µM | > 100 µM | > 100 µM | > 100 µM | > 100 µM | > 100 µM |
| O=C(O)c1ccc([N+]2=Cn3c(nc4ccccc43)C2)cc1 | > 100 µM | > 100 µM | > 100 µM | > 100 µM | > 100 µM | > 100 µM | > 100 µM | > 100 µM | > 100 µM | > 100 µM | > 100 µM | > 100 µM | > 100 µM | > 100 µM | > 100 µM | > 100 µM | > 100 µM | 3.05 µM | > 100 µM | > 100 µM |
| Cn1cc(-c2cnc(-c3cn(C)c4ccccc34)cn2)c2ccccc21 | 44.5 µM | 40.7 µM | > 41.4 µM | 33.5 µM | > 71.2 µM | 47.4 µM | > 94.6 µM | 24.7 µM | 27.7 µM | > 96.6 µM | > 42.4 µM | 31.3 µM | 25.7 µM | > 52.5 µM | > 65 µM | > 100 µM | 8.66 µM | > 100 µM | > 86.1 µM | 37.6 µM |
| O=C(O)c1cc2cc(c1)N=Cc1ccccc1OCc1cccc(n1)COc1ccccc1C=N2 | > 25 µM | 15.4 µM | > 25 µM | 13.1 µM | > 25 µM | > 25 µM | > 25 µM | > 25 µM | > 25 µM | > 25 µM | 13.2 µM | > 25 µM | > 25 µM | > 25 µM | > 25 µM | > 25 µM | > 25 µM | 22.4 µM | > 25 µM | > 25 µM |
| CSCCC(N)P(C)(=O)O (stereo not given) | > 100 µM | > 100 µM | > 100 µM | > 100 µM | > 100 µM | > 100 µM | > 100 µM | > 100 µM | > 100 µM | > 100 µM | > 100 µM | > 100 µM | > 100 µM | > 100 µM | > 100 µM | > 100 µM | > 100 µM | > 100 µM | > 100 µM | > 100 µM |
| Fc1ccc(OCc2nc3cc(C(F)(F)F)ccc3nc2-c2ccccc2)cc1 | > 100 µM | > 100 µM | > 100 µM | > 100 µM | > 100 µM | > 100 µM | > 100 µM | > 100 µM | > 100 µM | > 100 µM | > 100 µM | > 100 µM | > 100 µM | > 59 µM | > 100 µM | > 100 µM | > 89.1 µM | > 100 µM | > 100 µM | > 100 µM |
| CC(=O)Nc1sc([N+](=O)[O-])cc1S(=O)(=O)c1ccc(Cl)cc1 | > 100 µM | 64 µM | > 27.9 µM | 17.2 µM | 8.54 µM | > 95 µM | 10.6 µM | 13.5 µM | 9.79 µM | > 29.6 µM | 16.1 µM | 22.4 µM | 11.2 µM | > 100 µM | 14.7 µM | > 100 µM | > 23.5 µM | 15.3 µM | 21.9 µM | 14.1 µM |
| N/C(=N\N=C\c1c[nH]c2cc(C(F)(F)F)ccc2c1=O)NO | > 10 µM | > 10 µM | > 10 µM | > 10 µM | > 10 µM | > 10 µM | > 10 µM | > 10 µM | > 10 µM | > 10 µM | > 10 µM | > 10 µM | 9.03 µM | > 10 µM | > 10 µM | > 10 µM | > 10 µM | > 10 µM | > 10 µM | > 10 µM |
| O=C(O)C1=C(C(=O)O)N(c2ccncc2)C(c2ccco2)=CC1c1ccccc1[N+](=O)[O-] (stereo not given) | > 59 µM | > 69.9 µM | 28.1 µM | 62 µM | 37.3 µM | 4.25 µM | 3.13 µM | 21.3 µM | 22.5 µM | 30.7 µM | 23.5 µM | 32.1 µM | 23.9 µM | > 100 µM | 20.6 µM | 29.1 µM | 7.85 µM | 22.3 µM | 40.2 µM | 25.8 µM |
| ClCCN1CCOC1=Nc1ccc2c(c1)CCCC2 | 17.3 µM | 51.9 µM | 23 µM | 72 µM | 38.1 µM | 48.6 µM | 28.1 µM | 22.6 µM | 33 µM | 31.7 µM | 29.3 µM | 27.9 µM | 28.7 µM | > 100 µM | 30.3 µM | 27 µM | 17.1 µM | 20.8 µM | 30.9 µM | 26.7 µM |
| O=C1C(C(c2ccccc2)N2CCOCC2)=C(O)C(c2ccccc2)N1c1ccccc1 (stereo not given) | > 10 µM | > 10 µM | > 10 µM | > 10 µM | > 10 µM | > 10 µM | > 10 µM | > 10 µM | > 10 µM | > 10 µM | > 10 µM | > 10 µM | > 10 µM | > 10 µM | > 10 µM | > 10 µM | > 10 µM | > 10 µM | > 10 µM | > 10 µM |
